Measurements taken from US8389739B1, “Modulators of retinoid-related orphan receptor gamma” (Orphagen Pharmaceuticals, priority 2006, dated 2013).
Read-outs that look alike come from different tables or passages of the source.

Legend:
hPPARα = target: T1, hPPARα (Homo sapiens, UniProt Q07869); assay: Crossreactive receptor transcriptional assay (Gal4 hybrid); format: cell-based; details: activity of standard ligand at 20 μM
T1 construct: 166-468; expressed in transfected cells; host or cells: CHO cells, transient transfection
T1 sequence (Q07869 166-468): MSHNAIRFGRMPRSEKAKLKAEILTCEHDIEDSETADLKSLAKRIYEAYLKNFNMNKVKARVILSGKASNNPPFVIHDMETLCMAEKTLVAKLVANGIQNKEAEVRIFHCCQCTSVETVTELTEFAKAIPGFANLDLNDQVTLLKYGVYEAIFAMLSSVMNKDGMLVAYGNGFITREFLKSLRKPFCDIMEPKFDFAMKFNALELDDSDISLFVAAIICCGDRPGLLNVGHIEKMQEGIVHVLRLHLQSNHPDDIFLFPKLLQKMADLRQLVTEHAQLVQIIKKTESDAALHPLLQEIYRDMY
Experimental: (§1) A firefly luciferase reporter gene for Gal4 DBD hybrid receptors, such as Gal4-RORγ, contains five copies of the Gal4 17-mer response element in its promoter and the coding sequence for firefly luciferase (pG5-luc, Promega). CHO (Chinese Hamster Ovary) cells were cultured in Ham's F12 medium supplemented with 10% fetal calf serum (Gemini Biologicals), 10 μg/ml penicillin and streptomycin, and were maintained in a humidified 37° C. incubator (Thermo Electron, Steri-Cycle) with 5% CO2. 24 hours before transfection, cells were plated in T175 flasks (5×10^6 cells/flask) or T75 flasks (1.7×10^6 cells/flask). Transient transfection of CHO cells was performed using TransIT-CHO reagents (Minis, Madison, Wis.) with a mixing ratio of 2:6:1 between plasmid DNA (in μg), TransIT-CHO (in μl) and CHO-mojo (in μl).
(§2) Plates are maintained at 37° C. in a humidified atmosphere with 7% CO2 overnight. Four (4) hours after cell seeding, compounds dissolved in DMSO at 10 mM were added to cells at final concentrations of 20 micromolar (μM) to 20 nanomolar (nM) in 0.2% DMSO in triplicate plates. Approximately 40 hours later, cytotoxicity in the assay well was characterized by addition of the dye resazurin (O'Brien, Wilson et al. 2000) to a final concentration of 3 μM. […] Percent viability was determined as 2 hour fluorescence, minus background at t=0 hours, normalized to DMSO controls. For detection of luciferase activity, media was removed from plates after the measurement of resazurin conversion, and SteadyLite luciferase reagent (Perkin-Elmer) was added (30 μl/well). Luminescence is detected with a Victor 2-V plate reader (Perkin-Elmer) and normalized to luciferase activity of DMSO control wells alone.

[1] = target: T2, hPR (progesterone receptor) (Homo sapiens, UniProt P06401); assay: as above; format: cell-based; details: activity of standard ligand at 20 μM
T2 construct: 687-933; expressed in transfected cells; host or cells: CHO cells, transient transfection
T2 sequence (P06401 687-933): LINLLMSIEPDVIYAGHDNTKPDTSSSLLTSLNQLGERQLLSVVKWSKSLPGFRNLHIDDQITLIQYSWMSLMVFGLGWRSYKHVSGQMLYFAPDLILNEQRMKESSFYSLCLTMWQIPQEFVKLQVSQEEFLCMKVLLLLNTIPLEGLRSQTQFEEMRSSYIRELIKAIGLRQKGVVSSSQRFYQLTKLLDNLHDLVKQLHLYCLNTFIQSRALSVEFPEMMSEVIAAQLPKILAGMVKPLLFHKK
Experimental: as §1, §2

mRORγ LBD = target: T3, mRORγ LBD (Mus musculus, UniProt P51450); assay: Biochemical assay, coregulatory peptide recruitment to GST-RORγ LBD (FRET)
T3 construct: made in house; host or cells: Sf9 insect cells, baculovirus; cleared lysate used directly
T3 sequence (P51450 251-516): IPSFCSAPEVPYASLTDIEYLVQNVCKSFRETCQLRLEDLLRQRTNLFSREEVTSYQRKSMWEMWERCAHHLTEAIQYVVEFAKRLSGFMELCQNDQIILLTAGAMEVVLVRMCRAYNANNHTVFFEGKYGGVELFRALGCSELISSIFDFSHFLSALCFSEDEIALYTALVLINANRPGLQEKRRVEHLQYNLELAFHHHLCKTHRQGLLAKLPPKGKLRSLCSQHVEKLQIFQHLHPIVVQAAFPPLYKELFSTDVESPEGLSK
Text: GST-RORγ was generated by subcloning the RORγ-LBD into pET-41a, a vector which expresses GST fusion proteins in bacteria.
The cloning steps for GST-RORγ were as follows. The mRORγ LBD was excised from Gal4-mRORγ (see above for cloning steps) at BamHI and HindIII sites of Sequence 1 and cloned into the corresponding sites of pET-41a(+) (EMD Biosciences, San Diego, Calif.). A GST-mRORγ fragment was then excised from pET-41a(+) at XbaI and XhoI sites and cloned into a pcDNA3.1vector (Invitrogen, Carlsbad, Calif.) restricted at NheI and XhoI sites. Plasmid GST-mRORγ-pcDNA3.1 was used as a PCR template to generate a GST-mRORγ fragment that was later cloned into pENTR/D-TOPO vector (Invitrogen, Carlsbad, Calif.) by standard cloning techniques recommended by the manufacturer of the vector. The nucleotide sequence of GST-mRORγ is shown below:
For baculoviral expression of RORγ, the cDNA fragment of GST-RORγ— LBD, was subcloned from pET-41a into the pENTR/D-TOPO vector using a commercially-available kit (BaculoDirect, Invitrogen). Briefly, GST-RORγ carried by pENTR/D-TOPO was transfected into mono-layer Sf9 cells (8×10^5/well in 6-well plates) by Cellfectin (Invitrogen). Sf9 cells were incubated at 27° C. in a non-humidified incubator for 72 hours. Cell media was collected as P1 viral stock and used to further infect Sf9 cells to generate P2 and P3 virus. […] A plaque assay was performed to determine the titer of P3 virus and to isolate single plaques. P4 virus was generated from a single plaque and propagated on a larger scale.
Adherent SF9 cells were infected with baculovirus carrying GST-RORγ and were cultured for 72 hours. Sf9 cell were then subject to a brief sonication in a lysis buffer (20 mM phosphate, pH 6.8, 50 mM KCl, 50 mM NaCl, 0.5 mM EDTA, 50% glycerol, 0.001% NP-40 and 1 mM DTT) and centrifuged at 3000 rpm for 15 minutes. […] Cleared cell lysate was stored at −70° C. and is directly utilized in the coregulatory peptide recruitment assay.
The labeled probes anti-GST-APC and SA-RPE were purchased from Prozyme (San Leandro, Calif.). Compounds were added directly from a DMSO solution to a final concentration of 1-2% DMSO. Fluorescence was measured on a Wallac Victor 2 V plate reader equipped with a 670/40 nm filter (Omega Optical, Brattleboro, Vt.) for APC emission (Channel A) and a 600/25 bandpass filter for monitoring the RPE emission (Channel B).

mRORγ = target: T4, mRORγ (Mus musculus, UniProt P51450); assay: Transcriptional assay, Gal4-mRORγ with luciferase reporter in CHO cells; format: cell-based
T4 construct: expressed in transfected cells; host or cells: CHO cells, transient transfection
Experimental: The complete Gal4-mRORγ nucleotide sequence is shown below:
as §1, §2

human RORγ = target: T5, human RORγ (Homo sapiens, UniProt P51449); assay: Transcriptional assay of human RORγ (Gal4-hRORγ); format: cell-based; details: Table 4B
T5 construct: expressed in transfected cells; host or cells: CHO cells, transient transfection
T5 sequence (P51449 253-518): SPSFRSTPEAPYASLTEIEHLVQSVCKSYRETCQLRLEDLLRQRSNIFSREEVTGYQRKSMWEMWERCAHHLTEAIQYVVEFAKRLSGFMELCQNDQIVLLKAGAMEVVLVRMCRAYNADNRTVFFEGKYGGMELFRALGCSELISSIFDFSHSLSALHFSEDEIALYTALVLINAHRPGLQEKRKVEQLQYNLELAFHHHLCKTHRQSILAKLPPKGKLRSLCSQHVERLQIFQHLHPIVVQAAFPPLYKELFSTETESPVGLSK
Experimental: The complete Gal4-hRORγ nucleotide sequence is shown below:
as §1, §2

[2] = system: TH-17 cell differentiation from naïve CD4+ T cells; assay: Differentiation of naïve CD4+ T cells, intracellular IL-17/IFN-γ staining by FACS (TH-17 protocol, TGFβ + IL-6); format: cell-based, mouse; details: Table 8, naïve CD4 cells, 5 days, mean ±SD
[3] = target: T6, mLXRα (Liver X receptor alpha) (Mus musculus, UniProt Q9Z0Y9); assay: Transcriptional assay of LXRα (Gal4-LXRα hybrid); format: cell-based; details: for EC50: Table 7, no unit printed for this column (b114 gives 1.5 μM for OR-1050), read-out: Transcriptional Assay of LXRα EC50; for specificity for RORγ versus LXRα: comparison of transcriptional assays for RORγ and LXRα (Table 7)
T6 construct: 172-455; expressed in transfected cells; host or cells: CHO cells, transient transfection
T6 sequence (Q9Z0Y9 172-445 limits assumed): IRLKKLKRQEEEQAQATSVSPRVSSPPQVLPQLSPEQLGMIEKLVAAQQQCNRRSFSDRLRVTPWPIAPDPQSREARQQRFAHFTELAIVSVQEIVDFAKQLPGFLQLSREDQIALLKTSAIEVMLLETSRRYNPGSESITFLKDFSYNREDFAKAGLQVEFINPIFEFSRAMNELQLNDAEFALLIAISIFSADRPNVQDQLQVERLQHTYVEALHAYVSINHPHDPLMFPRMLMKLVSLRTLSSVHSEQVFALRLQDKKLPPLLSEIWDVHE
Experimental: as §1, §2
A transcriptional assay for LXRα, using a Gal4-LXRα hybrid, was implemented in order to compare RORγ ligand potencies. In addition to LXRα, transcriptional assays for a number of other major nuclear receptors were developed.

[4] = Table 4A, peptide K1, no agonist present, medians of two or more assays, unit inferred, read-out: EC50 Biochemical
[5] = Table 4A, medians of two or more assays, unit inferred, read-out: EC50 Transcriptional
[6] = Table 1, mRORγ and peptide K1, read-out: Assay EC50 in micromolar at mRORγ Biochemical
[7] = Table 7, taken from Table 1 (peptide K1), read-out: Assay EC50 in micromolar at mRORγ Biochemical
[8] = Table 1, antagonists, inhibition of basal Gal4-mRORγ transcription in CHO cells, read-out: Assay EC50 in micromolar at mRORγ Transcriptional
[9] = Table 7, taken from Table 1, read-out: Assay EC50 in micromolar at mRORγ Transcriptional

T4 sequence (P51450 with tags, fused parts or gaps): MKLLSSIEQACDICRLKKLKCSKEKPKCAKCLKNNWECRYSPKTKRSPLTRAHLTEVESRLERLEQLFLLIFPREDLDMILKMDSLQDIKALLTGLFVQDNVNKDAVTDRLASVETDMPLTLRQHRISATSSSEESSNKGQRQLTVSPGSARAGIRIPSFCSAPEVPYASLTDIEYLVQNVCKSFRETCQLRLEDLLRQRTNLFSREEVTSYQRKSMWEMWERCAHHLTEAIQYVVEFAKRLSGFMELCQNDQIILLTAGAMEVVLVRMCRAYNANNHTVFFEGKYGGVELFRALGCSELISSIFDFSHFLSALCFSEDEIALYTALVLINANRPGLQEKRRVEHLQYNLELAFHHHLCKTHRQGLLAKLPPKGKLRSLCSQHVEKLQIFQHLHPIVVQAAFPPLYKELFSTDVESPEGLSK

`Cc1cccc(Nc2cc(Cl)nc(SCC(=O)O)n2)c1C` [WY14643, reference compound] was tested, and the “Efficacy at hPPARα” value (hPPARα) was 6X.

For `CC(=O)[C@H]1CC[C@H]2[C@@H]3CCC4=CC(=O)CC[C@]4(C)[C@H]3CC[C@]12C` [Progesterone, progesterone, reference compound], the “Efficacy at hPR” value [1] was 6X.

In the case of `CCn1c(CNc2cccc(Cl)c2)nnc1SCC(=O)Nc1cccc2ccccc12` [OR-133097, 2-{5-[(3-Chloro-phenylamino)-methyl]-4-ethyl-4H-[1,2,4]triazol-3-ylsulfanyl}N-naphthalen-1-yl-acetamide], the EC50 (mRORγ LBD; [4]) is reported as 1.34 µM, the EC50 (mRORγ; [5]) is reported as 1.44 µM and the EC50 (human RORγ) is reported as 5 µM.

Molecule `Cn1c(CNc2cccc(Cl)c2)nnc1SCC(=O)Nc1cccc2ccccc12` [OR-133167, 2-{5-[(3-Chloro-phenylamino)-methyl]-4-methyl-4H-[1,2,4]triazol-3-ylsulfanyl}N-naphthalen-1-yl-acetamide] has an EC50 (mRORγ LBD; [4]) of 3.4 µM, an EC50 (mRORγ; [5]) of 3.3 µM and an EC50 (human RORγ) of 9.4 µM.

Work on `CCn1c(CNc2ccc(C)c(Cl)c2)nnc1SCC(=O)Nc1cccc2ccccc12` [OR-133171, 2-{5-[(3-Chloro-4-methyl-phenylamino)-methyl]-4-ethyl-4H-[1,2,4]triazol-3-ylsulfanyl}N-naphthalen-1-yl-acetamide] yielded an EC50 (mRORγ LBD; [4]) of 0.44 µM, an EC50 (mRORγ; [5]) of 0.49 µM and an EC50 (human RORγ) of 1.7 µM.

Work on `CCn1c(CNc2cccc(C(F)(F)F)c2)nnc1SCC(=O)Nc1cccc2ccccc12` [OR-133099, 2-{4-Ethyl-5-[(3-trifluoromethyl-phenylamino)-methyl]-4H-[1,2,4]triazol-3-ylsulfanyl}N-naphthalen-1-yl-acetamide] yielded an EC50 (mRORγ LBD; [4]) of 1.33 µM, an EC50 (mRORγ; [5]) of 1.04 µM and an EC50 (human RORγ) of 2.4 µM.

For “TGFβ1: exogenous cytokine used for TH-17 differentiation”, the “IL-17 (%)” value ([2]; 4 ng/ml) was 0.21 ± 0.02%.

`CCCCc1ccc(S(=O)(=O)N(CC)c2ccc(C(O)(C(F)(F)F)C(F)(F)F)cc2)cc1` [OR-1047, 4-Butyl-N-ethyl-N-[4-(2,2,2-trifluoro-1-hydroxy-1-trifluoromethyl-ethyl)-phenyl]-benzenesulfonamide] showed an EC50 (mRORγ LBD; [6]) of 5.8 µM, an EC50 (mRORγ LBD; [7]) of 5.8 µM and an Emax [3] of less than 5%. The EC50 [3] was greater than 20 µM, the “specificity for RORγ versus LXRα” value [3] was “more specific for RORγ than LXRα” and the EC50 (mRORγ; [8]) was 3.6 µM. For the same molecule, the EC50 (mRORγ; [9]) was 3.6 µM.

For `CCN(c1ccc(C(O)(C(F)(F)F)C(F)(F)F)cc1)S(=O)(=O)c1ccc(C)cc1` [OR-1052, N-Ethyl-4-methyl-N-[4-(2,2,2-trifluoro-1-hydroxy-1-trifluoromethyl-ethyl)-phenyl]-benzenesulfonamide], the EC50 (mRORγ LBD; [6]) was 0.89 µM, the EC50 (mRORγ LBD; [7]) was 0.89 µM and the Emax [3] was greater than 80%. For the same molecule, the EC50 [3] was 0.81 µM, the “specificity for RORγ versus LXRα” value [3] was “more specific for RORγ than LXRα” and the EC50 (mRORγ; [8]) was 0.21 µM. It also gave an EC50 (mRORγ; [9]) of 0.21 µM.

In the case of “IL-6: exogenous cytokine used for TH-17 differentiation”, the “IL-17 (%)” value ([2]; 20 ng/ml) is reported as 1.20 ± 0.04%.

In the case of `CCN(c1ccc(C(O)(C(F)(F)F)C(F)(F)F)cc1)S(=O)(=O)c1ccc(Br)cc1` [OR-1048, 4-Bromo-N-ethyl-N-[4-(2,2,2-trifluoro-1-hydroxy-1-trifluoromethyl-ethyl)-phenyl]-benzene sulfonamide], the EC50 (mRORγ LBD; [6]) is reported as 0.42 µM, the EC50 (mRORγ LBD; [7]) is reported as 0.42 µM and the Emax [3] is reported as greater than 80%. For the same molecule, the EC50 [3] was 0.57 µM, the “specificity for RORγ versus LXRα” value [3] was “more specific for RORγ than LXRα” and the EC50 (mRORγ; [8]) was 0.12 µM. For the same molecule, the EC50 (mRORγ; [9]) was 0.12 µM.
